Measured values reported in patent US20250213516A1, “Prophylactic Methods For Treating ALS” (BioJiva LLC, priority 2022, published 2025).
Entries after “also recorded” stand apart in the source; their conditions may differ.

Legend:
[1] = tested on: patients in the incipient stage of ALS; experiment: Clinical study, ALSFRS-R scoring of patients in the incipient stage of ALS; type: in vivo, human; conditions: for patients showing a better rate of decline (cut-off −11 change from baseline in ALSFRS-R): incipient stage, scored at 48 weeks
Text: This rating scale evaluated 12 different components on a 0 (worse) to 4 (best) scale where the components are speech, salivation, swallowing, handwriting, […], food handling, dressing and hygiene, turning in bed, […], climbing stairs, dyspnea, orthopnea, and respiratory insufficiency. As used herein, patients diagnosed with ALS are first evaluated to determine their natural history which measures the extent of loss of muscular functional due to the disease prior to initiation of therapy.
In this example, 41 patients diagnosed with ALS were tested to ascertain their natural history. Of these 41 patients, 23 scored above 38 points in the ALSFRS-R scoring test and were assigned as having incipient ALS. […] Each cohort received three 1 gram pills t.i.d. (“.three times a day”) at breakfast, lunch and dinner for a total of 9 pills.
After 24 weeks, each patient in each cohort were retested using the ALSFRS-R scoring test. The scores were then averaged for each cohort and the results are found in FIG. 1.
Each cohort received three 1 gram pills t.i.d. (“.three times a day”) at breakfast, lunch and dinner for a total of 9 pills.
After 48 weeks, each patient in each cohort were retested using the ALSFRS-R scoring test. The scores were then averaged.

[2] = tested on: patients in the accelerated stage of ALS; experiment: Clinical study, ALSFRS-R scoring of patients in the accelerated stage of ALS; type: in vivo, human; conditions: 9 g/day ethyl ester vs placebo, 24 weeks, FIG. 2
Text: As used herein, the term “accelerated stage of ALS” refers to patients whose diseases progression has evidenced a more substantial loss of muscular functionality. For the purposes of this application, such is identified as having a natural history score of 37 or less.
In this example, the same 41 patients diagnosed with ALS used in Comparative Example 1 were used. […] Each cohort received three 1 gram pills t.i.d. at breakfast, lunch and dinner for a total of 9 pills.
After 24 weeks, each patient in each cohort were retested using the ALSFRS-R scoring test. The scores were then averaged for each cohort and the results are found in FIG. 2.

[3] = tested on: inflammation model; experiment: Inflammation model
[4] = average diet, about 14 grams linoleic acid per day; cited from earlier work

## [2H]C([2H])(/C=C\CCCCC)/C=C\CCCCCCCC(=O)OCC
[1]; incipient stage ALS, about 9 g/day ethyl ester (8.64 g acid) vs placebo, 24 weeks, FIG. 1
  change in ALSFRS-R scores (loss of functionality), cohort average: do not evidence a significant change; also recorded: minimal loss of functionality
[2]
  loss of muscular functionality (ALSFRS-R, cohort average): substantially less loss of muscular functionality

## [2H]C([2H])(/C=C\CCCCC)/C=C\CCCCCCCC(=O)O [11,11-D2-linoleic acid]
[1]; placebo for 24 weeks, then 8.64 g/day for 24 weeks
  patients showing a better rate of decline (cut-off −11 change from baseline in ALSFRS-R): 40%
[1]; treated with 8.64 g/day for 48 weeks
  patients showing a better rate of decline (cut-off −11 change from baseline in ALSFRS-R): 70%

## [2H]C([2H])(/C=C\CCCCC)/C=C\C([2H])([2H])/C=C\C([2H])([2H])/C=C\CCCC(=O)O [7,7,10,10,13,13-D6-arachidonic acid]
[3]
  activity relative to 13,13-D2-arachidonic acid: a little more than twice as active

## CCCCC/C=C\C/C=C\CCCCCCCC(=O)O [linoleic acid]
[4]
  portion of linoleic acid consumed hepatically converted to arachidonic acid: about 10%
